Here are results for 76 compounds from PMC12040169 (PLOS Biology, 2025).

The data set is described as follows: in vitro. The note with it: human, hela cells, % viability.
The term viability denotes a read-out of living cells in per cent, often relative to untreated cells. Take `O=C(Nc1cc(Oc2cccnc2)cc([N+](=O)[O-])c1)c1cc2nc(-c3ccccc3)cc(-c3ccccc3)n2n1` [CBK262554]: the viability at 28.5 h, 10 µM is 87.3%.
In the case of `O=C(O)CCSc1nc2ccccc2n1CCOc1ccccc1` [CBK262555], the viability at 28.5 h, 10 µM stood at 95.9%.
The same measure for `O=C(c1sc2ccccc2c1Cl)N1CCN(CCN2C(=O)c3cccc4cccc(c34)C2=O)CC1` [CBK262557]: 99%; for `Cc1c(Br)c(C(F)(F)F)nn1CC(=O)Nc1ccc(Oc2cc([N+](=O)[O-])cc([N+](=O)[O-])c2)cc1` [CBK262558]: 97.5%.
The same measure for `CC1(C)Cc2c(ccc3ccccc23)C(NCC(=O)O)=N1` [CBK262559]: 97.6%; for `Cc1ccc(OCCn2c(SCCC(=O)O)nc3ccccc32)cc1` [CBK262561]: 84.7%.
The same measure for `N#CC1=C(N)n2c(s/c(=C\c3ccncc3)c2=O)=C(C#N)C1c1ccncc1` (stereo not shown) [CBK262563]: 96%.
In the case of `CCN=C(S)NNC(=O)CCn1c2ccccc2c2ccccc21` [CBK262564], the viability at 28.5 h, 10 µM came out at 93.8%.
The same measure for `Cc1ccccc1NC(=O)CC1c2ccccc2CC(C)(C)N1C` (stereo not shown) [CBK262567]: 87.4%.
Turning to `CC1(C)Cc2c(ccc3ccccc23)C(NC(Cc2c[nH]c3ccccc23)C(=O)O)=N1` (stereo not shown) [CBK262569], the viability at 28.5 h, 10 µM was 89.4%.
The same measure for `O=c1/c(=C/c2ccc(N3CCOCC3)cc2)sc2nc3cc(Br)cnc3n12` [CBK262574]: 86.9%; for `CC(NC1=NC(C)(C)Cc2ccccc21)C(=O)O` (stereo not shown) [CBK262575]: 89%; for `CC1=C(C(=O)OCc2ccccc2)C2(C(=O)Nc3ccccc32)C(C(=O)OCc2ccccc2)=C(N)O1` (stereo not shown) [CBK262576]: 89.6%.
With `O=C(O)CCCN1C(=O)/C(=C/c2c[nH]c3ccccc23)SC1=S` [CBK262580] the figure was 119%.
With `O=C(O)c1nn2c(C(F)(F)F)cc(-c3cccs3)nc2c1Cl` [CBK262581] the figure was 95.4%.
Regarding `COc1cc(/C=N/Nc2nc(Nc3ccccc3)nc(Nc3ccccc3)n2)ccc1O` [CBK262584], the viability at 28.5 h, 10 µM came out at 84.9%.
As to `CCCN1CCc2c(sc3nc(SCC(=O)c4ccccc4)n(-c4ccccc4)c(=O)c23)C1` [CBK262587], the viability at 28.5 h, 10 µM amounted to 109%.
With `CCCOc1ccc(Cc2nnn[nH]2)cc1` [CBK262590] the figure was 83.9%.
With `COc1ccc(C(=O)NNC(=O)c2cccc(O)c2)cc1` [CBK262594] the figure was 118%; with `CCCN1CCC(=NNC(=O)c2c[nH]c3ccccc23)CC1` [CBK262597], 95.3%.
With `COC(=O)c1cn(C(=O)COc2ccc(Cl)cc2)c2ccccc12` [CBK262598] the figure was 87%.
Regarding `NC(=O)c1ccccc1NC(=O)COc1ccccc1` [CBK262599], the viability at 28.5 h, 10 µM was 85.1%.
With `O=C(Nc1ccc(O)cc1)c1ccc(N2C(=O)c3cccc([N+](=O)[O-])c3C2=O)cc1` [CBK262600] the figure was 89.8%; with `O=C(O)CCC(=O)Nc1ccc(Br)cc1C(=O)c1ccc(Cl)cc1` [CBK262601], 86.7%.
The same measure for `O=C(NCCCN1CCOCC1)c1ccccc1Br` [CBK262602C]: 106%.
With `COC(=O)c1c(NC(=O)C(Sc2ccccc2)c2ccccc2)sc2c1CCC(C(C)(C)C)C2` (stereo not shown) [CBK262603] the figure was 105%; with `COC(=O)CNC(c1cc(Br)ccc1N)c1ccccc1Cl` (stereo not shown) [CBK262605], 89%; with `COc1cc(C(=O)NC(C)C(=O)NN)cc(OC)c1OC` (stereo not shown) [CBK262609], 106%.
For `COc1ccccc1OCC(=O)NNC(=O)c1cnccn1` [CBK262617], the viability at 28.5 h, 10 µM was determined as 109%.
The same measure for `C/C(CC(=O)Nc1ccc(C)cc1)=N\NC(=O)c1cccc(O)c1` [CBK262618]: 104%.
With `COc1ccc(OCC(=O)NNC(=O)c2cnccn2)cc1` [CBK262619] the figure was 98.1%; with `CC(=O)C1=C(C)NC(SCC(=O)c2ccc(C)cc2)=C(C#N)C1c1ccco1` (stereo not shown) [CBK262623], 109%; with `CC(=O)C1=C(C)NC(SCC(=O)c2ccc(F)cc2)=C(C#N)C1c1sccc1C` (stereo not shown) [CBK262624], 95.6%.
Take `CC(C)N1CCC(=NNC(=O)c2cc(O)c(O)c(O)c2)CC1` [CBK262626]: the viability at 28.5 h, 10 µM was 117%.
The same measure for `Cc1cc(NS(=O)(=O)c2ccc(NC(=O)c3cc(-c4ccc(C)o4)nc4ccccc34)cc2)nc(C)n1` [CBK262628]: 93.9%.
With `CCC1CCc2c(sc(NC(=O)c3cc(-c4ccc(C)cc4C)nc4ccccc34)c2C(=O)OC)C1` (stereo not shown) [CBK262629] the figure was 89.2%.
The same measure for `COc1cccc(-c2cc(C(=O)NCCCN3CCOCC3)c3ccccc3n2)c1` [CBK262630]: 91.7%.
In the case of `NC(=O)c1c(NC(=O)/C=C/c2c(F)cccc2Cl)sc2c1CCCCCC2` [CBK262631], the viability at 28.5 h, 10 µM turned out to be 98.2%.
With `O=C(c1cc(-c2cccc(Br)c2)nc2ccccc12)N1CCN(C/C=C/c2ccccc2)CC1` [CBK262633] the figure was 100%.
With `Cc1c(-c2ccc(Cl)cc2Cl)nc2ccccc2c1C(=O)NCCCc1ccccc1` [CBK262635] the figure was 89.4%; with `COC(=O)c1c(NC(=O)c2ccncc2)sc2c1CCC2` [CBK262637], 88.1%.
With `O=C(c1ccc2c(c1)OCO2)N1CCN(C/C=C/c2ccccc2)CC1` [CBK262639] the figure was 105%; with `COc1cccc(-c2cc(C(=O)Nc3nnn[nH]3)c3ccccc3n2)c1` [CBK262640], 98.6%; with `O=C(O)CC(NS(=O)(=O)c1cccc([N+](=O)[O-])c1)c1ccccc1` (stereo not shown) [CBK262641], 96.4%.
With `Cc1cc(C)cc(NC(=O)C2C3C=CC(O3)C2C(=O)O)c1` (stereo not shown) [CBK262642], the viability at 28.5 h, 10 µM stood at 95.3%.
With `COC(=O)c1c(NC(=O)c2c(C)c(-c3ccc(Cl)cc3Cl)nc3ccccc23)sc2c1CCC(C)C2` (stereo not shown) [CBK262644] the figure was 82.9%; with `CCOC(=O)c1c(NC(=O)CCC(=O)O)sc2c1CCCCC2` [CBK262648], 100%.
With `CCC1CCc2c(sc(NC(=O)c3cnccn3)c2C(N)=O)C1` (stereo not shown) [CBK262649] the figure was 105%; with `COc1ccc(/C=C/C(=O)Nc2cc(S(N)(=O)=O)ccc2C)cc1` [CBK262651], 102%.
With `CCOC(=O)c1c(NC(=O)c2cc(-c3ccc(Cl)s3)nc3ccccc23)sc(C)c1CC` [CBK262657] the figure was 107%; with `O=c1c2c(nc(SCCc3ccccc3)n1CCc1ccccc1)-c1ccccc1CC21CCCCC1` [CBK262661], 86.8%; with `CC12CN3CC(C)(CN(C1)C3c1ccc(O)cc1)C2O` (stereo not shown) [CBK262663], 107%.
As for `Cc1cc(NN(Cc2ccccc2)Cc2ccccc2)n2c(nc3ccccc32)c1C#N` [CBK262666], the viability at 28.5 h, 10 µM stood at 96.9%.
For `O=C1c2ccc(OCCOc3ccc4c(c3)C(=O)N(c3ccc(O)cc3)C4=O)cc2C(=O)N1c1ccc(O)cc1` [CBK262668], the viability at 28.5 h, 10 µM is 91.3%.
The same measure for `CC1=NN(c2ccc([N+](=O)[O-])cc2)C(=O)/C1=C/NCc1ccc(S(N)(=O)=O)cc1` [CBK262670]: 111%; for `CC(NCCCN(C)C)=C1C(=O)c2ccccc2C1=O` [CBK262674]: 81.6%; for `CC(Nc1cccc2ccccc12)C(=O)N/N=C/c1ccc([N+](=O)[O-])cc1` (stereo not shown) [CBK262676]: 84.2%.
Take `COc1cc(Nc2cccc3c2C(=O)c2ccccc2C3=O)c(OC)cc1C=O` [CBK262677]: the viability at 28.5 h, 10 µM was found to be 109%.
With `CC(Nc1cccc2ccccc12)C(=O)N/N=C/c1c(O)ccc2ccccc12` (stereo not shown) [CBK262678] the figure was 97.5%; with `CCOc1ccc2c(c1)-c1c(ssc1=S)C(C)(C)N2C(=O)CSc1nnc[nH]1` [CBK262680], 98.6%.
With `Cc1ccc2c(c1)-c1c(ssc1=S)C(C)(C)N2C(=O)COc1nc2ccccc2s1` [CBK262682] the figure was 88%.
Regarding `CCOC(=O)/C(C#N)=C(\O)c1ccc(N2C(=O)c3ccc(C(=O)O)cc3C2=O)cc1` [CBK262683], the viability at 28.5 h, 10 µM was 91.8%.
In the case of `CCOc1ccc(-c2c3c(c(-c4ccccc4)n2-c2ccc(N)cc2)C(=O)c2ccccc2C3=O)cc1` [CBK262685], the viability at 28.5 h, 10 µM was found to be 40%.
With `COc1cc(C2Nc3ccccc3-c3nc(SC)nnc3O2)ccc1OCC(=O)O` (stereo not shown) [CBK262687] the figure was 94.3%.
With `CC(NCCN1CCOCC1)=C1C(=O)c2ccccc2C1=O` [CBK262691] the figure was 96.1%; with `CC(NCc1ccc(S(N)(=O)=O)cc1)=C1C(=O)c2ccccc2C1=O` [CBK262692], 87%.
With `COc1cccc(NC(=O)C2CN(S(=O)(=O)c3ccccc3)CCN2S(=O)(=O)c2ccccc2)c1` (stereo not shown) [CBK262694] the figure was 85.9%.
As to `Nc1ccc(-n2c(-c3ccccc3)c3c(c2-c2ccc(Cl)cc2)C(=O)c2ccccc2C3=O)cc1` [CBK262695], the viability at 28.5 h, 10 µM was 87.3%.
With `Cc1ccc2c(c1)N(C(=O)COc1nc3ccccc3s1)C(C)(C)c1ssc(=S)c1-2` [CBK262696] the figure was 97.7%; with `O=C(O)Cn1cc(I)c(=O)[nH]c1=O` [CBK262698], 98.6%.
The same measure for `O=C(CSc1nc2ccccc2c(=O)n1Cc1ccccc1)c1ccc(Br)cc1` [CBK262700]: 93.4%; for `Nc1ncnc(NCCc2ccccc2)n1` [CBK262701]: 85%.
With `NC(=O)C[N+]1(CC#CC(O)(c2ccccc2)c2ccccc2)CCCC1` [CBK262703I] the figure was 95.3%; with `CNCCOCC(O)CSc1ccccc1` (stereo not shown) [CBK262704], 100%.
Consider `Cc1ccc(/N=N/N(CC(O)C(O)C(O)CO)c2ccc(C)c(C)c2)cc1C` (stereo not shown) [CBK262705], for which the viability at 28.5 h, 10 µM amounted to 90%.
With `O=C(c1ccccc1)c1ccc2[nH]c(-c3ccc(NC(=O)c4ccccc4Cl)cc3)nc2c1` [CBK262706] the figure was 83.7%.
